Values of other authors in US20130031645A1, “METHOD FOR HEPATIC DIFFERENTIATION OF DEFINITIVE ENDODERM CELLS” (priority 2009, published 2013).

Assays:
[1] = tested on: RXR receptors
[2] = tested on: retinoic acid receptors (RARs)

CC1=C(/C=C/C(C)=C/C=C/C(C)=C/C(=O)O)C(C)(C)CCC1 [ATRA, All-trans retinoic acid]
binding to the RXR receptors [1]: does not bind | affinity for the three RAR subtypes [2]: approximately equal affinity
